From ChEMBL document CHEMBL1817542, “Aromatic phosphonates inhibit the lysophospholipase D activity of autotaxin” (Bioorg Med Chem Lett, 2011)
Active and inactive are the calls of the source. No cut-off for these calls is given here.

Key:
[1] = molecular target: T1, Autotaxin (Homo sapiens, UniProt Q13822); experiment: Inhibition of human recombinant ATX lysophospholipase activity expressed in insect sf9 cells using FS-3 fluorogenic substrate preincubated for 10 mins measured after 5 and 25 mins by fluorometric analysis
[2] = molecular target: T1, Autotaxin; experiment: Inhibition of human recombinant ATX lysophospholipase activity expressed in insect sf9 cells using FS-3 fluorogenic substrate at 10 uM preincubated for 10 mins measured after 5 and 25 mins by fluorometric analysis
[3] = Aqueous solubility of the compound; format: physicochemical; conditions: buffer

Row | SMILES | Ki [1] [µM] | other results
1 | CCCCCCCCCCCCCC(=O)Nc1ccc(C(F)P(=O)(O)O)cc1.NC1CCCCC1 (stereo not given) | 0.0061 | 
2 | COCCOCCOCCC(=O)Nc1ccc(CP(=O)(O)O)cc1.NC1CCCCC1 |  | inhibition [2]: inactive
3 | CCCCCCCCCC(=O)Nc1ccc(C(F)P(=O)(O)O)cc1.NC1CCCCC1 (stereo not given) | 0.072 | 
4 | CCCCCCCCCCCCCC(=O)Nc1ccc(C(O)P(=O)(O)O)cc1.NC1CCCCC1 (stereo not given) | 0.024 | 
5 | CCCCCCCCCCCCCC(=O)Nc1ccc(CP(=O)(O)O)cc1.NC1CCCCC1 | 0.009 | solubility ([3]; read-out: solubility): 1 mg/mL
6 | CCOP(=O)(Cc1ccc(N)cc1)OCC |  | solubility [3]: soluble; inhibition [2]: inactive
7 | CCCCCCCCCC(=O)Nc1ccc(C(O)P(=O)(O)O)cc1.NC1CCCCC1 (stereo not given) | 0.0242 | solubility ([3]; read-out: solubility): 4 mg/mL
8 | CCCCCCCCCCCCCC(=O)Nc1ccc(C(Br)P(=O)(O)O)cc1.NC1CCCCC1 (stereo not given) | 0.0081 | 
9 | CCCCCCCCCC(=O)Nc1ccc(CP(=O)(O)O)cc1.NC1CCCCC1 | 0.018 | 
10 | CCCCCCC(=O)Nc1ccc(C(O)P(=O)(O)O)cc1.NC1CCCCC1 (stereo not given) | 1.01 | 
11 | CCCCCCC(=O)Nc1ccc(C(F)P(=O)(O)O)cc1.NC1CCCCC1 (stereo not given) | 0.834 | 
12 | CCCCCCC(=O)Nc1ccc(CP(=O)(O)O)cc1.NC1CCCCC1 | 0.512 | 
